Experimental data published in patent publication US8722683B2, “Benzodioxole piperazine compounds” (Hoffmann LA-Roche Inc., priority 2011, dated 2014).

What was measured:
D2 receptor = D2 receptor (Homo sapiens (Human), UniProt P14416); assay: Radioligand binding ([3H]-spiperone) to cloned D2 receptor expressed in HEK-293 EBNA cells; details: HEK293 EBNA membranes, 0.7 nM [3H]-spiperone
Experimental: (§1) HEK293 EBNA cells were transiently transfected with expression plasmids encoding for the human D2 or D3 or for the human 5-HT2A receptor, respectively. The cells were harvested 48 h post-transfection, washed three times with cold PBS and stored at −80° C. prior to use. The pellet was suspended in cold 50 mM Tris-HCl buffer containing 10 mM EDTA (pH 7.4) and was homogenized with a Polytron (Kinematica AG, Basel, Switzerland) for 20-30 sec at 12.000 rpm. After centrifugation at 48.000×g for 30 min at 4° C., the pellet was resuspended in cold 10 mM Tris-HCl buffer containing 0.1 mM EDTA (pH 7.4), homogenized, and centrifuged as above. This pellet was further resuspended in a smaller volume of ice cold 10 mM Tris-HCl buffer containing 0.1 mM EDTA (pH 7.4) and homogenized with a Polytron for 20-30 sec at 12.000 rpm. The protein content of this homogenate was determined with the Bio-Rad (Bradford) Protein Assay (Biorad Laboratories GmbH, München, Germany) according to the instructions of the manufacturer using gamma globulin as the standard. This homogenate was stored at −80° C. in aliquots and thawed immediately prior to use.
(§2) Radioligand Binding Assay
(§3) Aliquots of membrane preparations were thawed at RT, resupended in assay buffer (D2, D3: 50 mM Tris-HCl, 120 mM NaCl, 5 mM MgCl2, 1 mM EDTA, 5 mM KCl, 1.5 mM CaCl2, pH=7.4; 5-HT2A: 50 mM Tris-HCl, 10 mM MgCl2, 1 mM EGTA, pH=7.4), homogenized with a Polytron for 20-30 sec at 12.000 rpm and adjusted to a final concentration of approximately 7.5 μg protein/well (D2, D3) and 15 μg protein/well (5-HT2A), respectively.
The binding affinity (Ki) of the compounds was determined using radioligand binding. […] The nonspecific binding was determined with equally composed reaction mixtures in the presence of 10 μM unlabelled spiperone. Per well 45 μl of Microscint 40 (Perkin Elmer, Schwerzenbach, Switzerland) was added, plates for sealed, shaken for 20 min and counted for 3 min on a Topcount Microplate Scintillation Counter (Canberra Packard SA, Zürich, Switzerland) with quenching correction.
(§4) The CPM value for each duplicate of a concentration of competing compound was averaged (y1), then the % specific binding was calculated according to the equation (((y1−non-specific)/(total binding−non-specific))×100). Graphs were plotted with the % specific binding using XLfit, a curve fitting program that iteratively plots the data using Levenberg-Marquardt algorithm. The single site competition analysis equation used was y=A+((B−A)/(1+((x/C)D))), where y is the % specific binding, A is the minimum y, B is the maximum y, C is the IC50, x is the log 10 of the concentration of the competing compound and D is the slope of the curve (the Hill Coefficient). […] The affinity constant (Ki) was calculated using the Cheng-Prusoff equation Ki=(IC50/1+([L]/Kd), where [L] is the concentration of radioligand and Kd is the dissociation constant of the radioligand at the receptor as determined by the saturation isotherm.

D3 receptor = D3 receptor (Homo sapiens (Human), UniProt P35462); assay: Radioligand binding ([3H]-spiperone) to cloned D3 receptor expressed in HEK-293 EBNA cells; details: HEK293 EBNA membranes, 0.5 nM [3H]-spiperone
Experimental: as §1, §2, §3
The binding affinity (Ki) of the compounds was determined using radioligand binding. […] At the end of the incubation, the reaction mixtures were filtered on to unifilter 96-well white microplates with bonded GF/C filters (Packard BioScience, Zürich, Switzerland; preincubated for 1 h in 0.1% polyethylenimine (PEI) in assay buffer) with a Filtermate 196 harvester (Packard BioScience) and washed 3 times with cold assay buffer. The nonspecific binding was determined with equally composed reaction mixtures in the presence of 10 μM unlabelled spiperone. Per well 45 μl of Microscint 40 (Perkin Elmer, Schwerzenbach, Switzerland) was added, plates for sealed, shaken for 20 min and counted for 3 min on a Topcount Microplate Scintillation Counter (Canberra Packard SA, Zürich, Switzerland) with quenching correction.
as §4

Sequence of D3 receptor (P35462 whole entry): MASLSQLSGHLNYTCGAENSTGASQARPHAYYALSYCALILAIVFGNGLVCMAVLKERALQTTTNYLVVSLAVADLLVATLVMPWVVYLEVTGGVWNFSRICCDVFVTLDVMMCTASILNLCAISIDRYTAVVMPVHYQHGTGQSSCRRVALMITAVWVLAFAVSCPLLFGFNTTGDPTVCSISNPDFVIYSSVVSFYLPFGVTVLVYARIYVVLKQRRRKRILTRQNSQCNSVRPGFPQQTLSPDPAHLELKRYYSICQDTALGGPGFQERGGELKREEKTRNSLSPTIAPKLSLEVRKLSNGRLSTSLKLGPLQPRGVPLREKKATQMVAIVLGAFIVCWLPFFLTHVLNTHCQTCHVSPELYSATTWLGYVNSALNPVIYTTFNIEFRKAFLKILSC
Sequence of D2 receptor (P14416 whole entry): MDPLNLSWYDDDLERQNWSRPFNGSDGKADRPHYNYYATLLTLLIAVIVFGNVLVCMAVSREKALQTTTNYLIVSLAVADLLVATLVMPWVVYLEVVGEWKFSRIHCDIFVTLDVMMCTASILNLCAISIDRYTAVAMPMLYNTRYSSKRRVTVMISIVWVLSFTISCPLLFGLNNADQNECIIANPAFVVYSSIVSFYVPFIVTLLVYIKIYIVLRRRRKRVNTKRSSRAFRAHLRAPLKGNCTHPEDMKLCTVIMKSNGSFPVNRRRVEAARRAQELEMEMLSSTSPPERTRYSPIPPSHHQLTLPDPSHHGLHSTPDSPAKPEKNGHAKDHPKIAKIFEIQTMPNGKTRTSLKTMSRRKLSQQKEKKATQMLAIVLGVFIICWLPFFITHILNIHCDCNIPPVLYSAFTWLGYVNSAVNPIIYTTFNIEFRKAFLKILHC

Compound	Ki (D2 receptor)	Ki (D3 receptor)
CCCC(=O)N[C@H]1CC[C@H](CCN2CCN(c3cccc4c3OCO4)CC2)CC1 [Example 19, Trans-N-{4-[2-(4-Benzo[1,3]dioxol-4-yl-piperazin-1-yl)-ethyl]-cyclohexyl}-butyramide]	144 nM	1.58 nM
O=C(CO)N[C@H]1CC[C@H](CCN2CCN(c3cccc4c3OCO4)CC2)CC1 [Example 10, Trans-N-{4-[2-(4-Benzo[1,3]dioxol-4-yl-piperazin-1-yl)-ethyl]-cyclohexyl}-2-hydroxy-acetamide]	184 nM	1.69 nM
O=C(Cc1ccc2c(c1)OCO2)N[C@H]1CC[C@H](CCN2CCN(c3cccc4c3OCO4)CC2)CC1 [Example 51, 2-Benzo[1,3]dioxol-5-yl-trans-N-{4-[2-(4-benzo[1,3]dioxol-4-yl-piperazin-1-yl)-ethyl]-cyclohexyl}-acetamide]	681 nM	2.11 nM
CC(C)(O)C(=O)N[C@H]1CC[C@H](CCN2CCN(c3cccc4c3OCO4)CC2)CC1 [Example 24, Trans-N-{4-[2-(4-Benzo[1,3]dioxol-4-yl-piperazin-1-yl)-ethyl]-cyclohexyl}-2-hydroxy-2-methyl-propionamide]	181 nM	8.8 nM
O=C(N[C@H]1CC[C@H](CCN2CCN(c3cccc4c3OCO4)CC2)CC1)C1COc2ccccc2C1 (stereo partly drawn) [Example 50, Chroman-3-carboxylic acid-trans-N-{4-[2-(4-benzo[1,3]dioxol-4-yl-piperazin-1-yl)-ethyl]-cyclohexyl}-amide]	572 nM	0.87 nM
O=C(CC1CC1)N[C@H]1CC[C@H](CCN2CCN(c3cccc4c3OCO4)CC2)CC1 [Example 8, Trans-N-{4-[2-(4-Benzo[1,3]dioxol-4-yl-piperazin-1-yl)-ethyl]-cyclohexyl}-2-cyclopropyl-acetamide]	142 nM	1.23 nM
O=C(N[C@H]1CC[C@H](CCN2CCN(c3cccc4c3OCO4)CC2)CC1)c1ccnc2ccccc12 [Example 47, Quinoline-4-carboxylic acid-trans-N-{4-[2-(4-benzo[1,3]dioxol-4-yl-piperazin-1-yl)-ethyl]-cyclohexyl}-amide]	509 nM	2.4 nM
O=C(CC1CCOCC1)N[C@H]1CC[C@H](CCN2CCN(c3cccc4c3OCO4)CC2)CC1 [Example 53, N-trans-{4-[2-(4-Benzo[1,3]dioxol-4-yl-piperazin-1-yl)-ethyl]-cyclohexyl}-2-(tetrahydro-pyran-4-yl)-acetamide]	139 nM	2.09 nM
O=C(CC1(O)CCCCC1)N[C@H]1CC[C@H](CCN2CCN(c3cccc4c3OCO4)CC2)CC1 [Example 15, Trans-N-{4-[2-(4-Benzo[1,3]dioxol-4-yl-piperazin-1-yl)-ethyl]-cyclohexyl}-2-(1-hydroxy-cyclohexyl)-acetamide]	160 nM	3.48 nM
COCCC(=O)N[C@H]1CC[C@H](CCN2CCN(c3cccc4c3OCO4)CC2)CC1 [Example 2, Trans-N-{4-[2-(4-Benzo[1,3]dioxol-4-yl-piperazin-1-yl)-ethyl]-cyclohexyl}-3-methoxy-propionamide]	173 nM	1.88 nM
O=C(N[C@H]1CC[C@H](CCN2CCN(c3cccc4c3OCO4)CC2)CC1)c1ccccc1 [Example 11, Trans-N-{4-[2-(4-Benzo[1,3]dioxol-4-yl-piperazin-1-yl)-ethyl]-cyclohexyl}-benzamide]	269 nM	9.99 nM
CO[C@@H]1CC[C@@H](CC(=O)N[C@H]2CC[C@H](CCN3CCN(c4cccc5c4OCO5)CC3)CC2)C1 [Example 23, Trans-N-{4-[2-(4-Benzo[1,3]dioxol-4-yl-piperazin-1-yl)-ethyl]-cyclohexyl}-2-((1R,3R)-3-methoxy-cyclopentyl)-acetamide]	183 nM	2.5 nM

Stronger by Ki (D2 receptor), values ahead:

Ki (D2 receptor)	Ki (D3 receptor)	Compound
63 nM	1.29 nM	O=S(=O)(N[C@H]1CC[C@H](CCN2CCN(c3cccc4c3OCO4)CC2)CC1)N1CCOCC1 [Example 77, Morpholine-4-sulfonic acid-trans-N-{4-[2-(4-benzo[1,3]dioxol-4-yl-piperazin-1-yl)-ethyl]-cyclohexyl}-amide]
112 nM	19.9 nM	CO[C@H](C(=O)N[C@H]1CC[C@H](CCN2CCN(c3cccc4c3OCO4)CC2)CC1)C(C)C [Example 65, (S)-trans-N-{4-[2-(4-Benzo[1,3]dioxol-4-yl-piperazin-1-yl)-ethyl]-cyclohexyl}-2-methoxy-3-methyl-butyramide]
113 nM	4.91 nM	O=C(N[C@H]1CC[C@H](CCN2CCN(c3cccc4c3OCO4)CC2)CC1)C(F)(F)F [Example 70, N-trans-{4-[2-(4-Benzo[1,3]dioxol-4-yl-piperazin-1-yl)-ethyl]-cyclohexyl}-2,2,2-trifluoro-acetamide]
101 nM	3.55 nM	N#Cc1ccc(C(=O)N[C@H]2CC[C@H](CCN3CCN(c4cccc5c4OCO5)CC3)CC2)cc1 [Example 59, Trans-N-{4-[2-(4-Benzo[1,3]dioxol-4-yl-piperazin-1-yl)-ethyl]-cyclohexyl}-4-cyano-benzamide]
30.4 nM	11.2 nM	CN(C)C(=O)N[C@H]1CC[C@H](CCN2CCN(c3cccc4c3OCO4)CC2)CC1 [Example 72, N-trans-3-{4-[2-(4-Benzo[1,3]dioxol-4-yl-piperazin-1-yl)-ethyl]-cyclohexyl}-1,1-dimethyl-urea]
81.1 nM	2.98 nM	O=C(N[C@H]1CC[C@H](CCN2CCN(c3cccc4c3OCO4)CC2)CC1)C1CC(Cl)C1 (stereo partly drawn) [Example 60, 3-Chloro-cyclobutanecarboxylic acid-trans-N-{4-[2-(4-benzo[1,3]dioxol-4-yl-piperazin-1-yl)-ethyl]-cyclohexyl}-amide]
97.2 nM	6.28 nM	[2H]C1([2H])Oc2cccc(N3CCN(CC[C@H]4CC[C@H](NC(=O)C(C)(C)O)CC4)CC3)c2O1 [Example 81, N-trans-{4-[2-(4-Benzo(2,2-D2)-[1,3]dioxol-4-yl-piperazin-1-yl)-ethyl]-cyclohexyl}-2-hydroxy-2-methyl-propionamide]
117 nM	27.4 nM	COC(C)(C)C(=O)N[C@H]1CC[C@H](CCN2CCN(c3cccc4c3OCO4)CC2)CC1 [Example 63, Trans-N-{4-[2-(4-Benzo[1,3]dioxol-4-yl-piperazin-1-yl)-ethyl]-cyclohexyl}-2-methoxy-2-methyl-propionamide]
124 nM	11 nM	O=C(N[C@H]1CC[C@H](CCN2CCN(c3cccc4c3OCO4)CC2)CC1)C1(O)CCCC1 [Example 36, 1-Hydroxy-cyclopentanecarboxylic acid-trans-N-{4-[2-(4-benzo[1,3]dioxol-4-yl-piperazin-1-yl)-ethyl]-cyclohexyl}-amide]
82.5 nM	3.79 nM	O=C(N[C@H]1CC[C@H](CCN2CCN(c3cccc4c3OCO4)CC2)CC1)c1ccc(F)cc1 [Example 46, Trans-N-{4-[2-(4-Benzo[1,3]dioxol-4-yl-piperazin-1-yl)-ethyl]-cyclohexyl}-4-fluoro-benzamide]
89.8 nM	2.17 nM	C[C@@H](O)C(=O)N[C@H]1CC[C@H](CCN2CCN(c3cccc4c3OCO4)CC2)CC1 [Example 42, (R)-Trans-N-{4-[2-(4-Benzo[1,3]dioxol-4-yl-piperazin-1-yl)-ethyl]-cyclohexyl}-2-hydroxy-propionamide]
91.1 nM	1.97 nM	O=C(N[C@H]1CC[C@H](CCN2CCN(c3cccc4c3OCO4)CC2)CC1)C1CCC1 [Example 54, Cyclobutanecarboxylic acid-trans-N-{4-[2-(4-benzo[1,3]dioxol-4-yl-piperazin-1-yl)-ethyl]-cyclohexyl}-amide]
